# Measurements as given in US12581252B2, “Substituted pyrrolo[3,4-b]pyridines as PI3K-α inhibitors” (Relay Therapeutics, Inc., priority 2020, dated 2026).
# Biological target: H1047R PIK3CA enzyme (Homo sapiens, UniProt P42336, H1047R)
# Assay: ADP-Glo Biochemical PIK3CA Kinase Assay
# H1047R PIK3CA enzyme, sequence (P42336 whole entry H1047R): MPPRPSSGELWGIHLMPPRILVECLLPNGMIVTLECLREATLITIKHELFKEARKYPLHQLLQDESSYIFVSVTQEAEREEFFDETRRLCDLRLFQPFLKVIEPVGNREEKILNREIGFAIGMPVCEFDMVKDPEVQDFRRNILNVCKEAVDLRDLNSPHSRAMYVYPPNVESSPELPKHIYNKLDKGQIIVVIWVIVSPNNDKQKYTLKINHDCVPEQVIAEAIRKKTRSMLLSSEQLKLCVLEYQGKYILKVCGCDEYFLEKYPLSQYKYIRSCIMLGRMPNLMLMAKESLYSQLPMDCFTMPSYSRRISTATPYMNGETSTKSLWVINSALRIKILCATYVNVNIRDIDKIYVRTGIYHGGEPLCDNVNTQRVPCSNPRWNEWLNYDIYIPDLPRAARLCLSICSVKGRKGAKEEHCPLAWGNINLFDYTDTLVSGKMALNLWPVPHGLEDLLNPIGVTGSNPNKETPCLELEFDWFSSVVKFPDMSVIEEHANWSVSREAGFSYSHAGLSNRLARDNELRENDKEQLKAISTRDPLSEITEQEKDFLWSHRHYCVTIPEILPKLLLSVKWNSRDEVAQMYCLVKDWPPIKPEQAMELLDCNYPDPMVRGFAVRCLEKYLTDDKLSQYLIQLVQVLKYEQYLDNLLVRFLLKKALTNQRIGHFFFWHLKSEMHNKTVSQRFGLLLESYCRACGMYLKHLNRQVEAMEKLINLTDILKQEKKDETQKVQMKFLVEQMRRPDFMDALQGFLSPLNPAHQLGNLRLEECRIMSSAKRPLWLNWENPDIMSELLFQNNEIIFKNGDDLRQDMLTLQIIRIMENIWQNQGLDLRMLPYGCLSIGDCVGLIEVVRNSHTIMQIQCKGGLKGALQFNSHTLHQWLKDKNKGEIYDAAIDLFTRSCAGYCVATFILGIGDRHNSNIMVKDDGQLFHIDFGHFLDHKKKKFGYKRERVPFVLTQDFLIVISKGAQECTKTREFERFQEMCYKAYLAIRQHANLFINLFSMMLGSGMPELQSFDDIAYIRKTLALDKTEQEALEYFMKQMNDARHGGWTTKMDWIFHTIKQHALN
# H1047R PIK3CA enzyme, sequence (P27986 whole entry partner): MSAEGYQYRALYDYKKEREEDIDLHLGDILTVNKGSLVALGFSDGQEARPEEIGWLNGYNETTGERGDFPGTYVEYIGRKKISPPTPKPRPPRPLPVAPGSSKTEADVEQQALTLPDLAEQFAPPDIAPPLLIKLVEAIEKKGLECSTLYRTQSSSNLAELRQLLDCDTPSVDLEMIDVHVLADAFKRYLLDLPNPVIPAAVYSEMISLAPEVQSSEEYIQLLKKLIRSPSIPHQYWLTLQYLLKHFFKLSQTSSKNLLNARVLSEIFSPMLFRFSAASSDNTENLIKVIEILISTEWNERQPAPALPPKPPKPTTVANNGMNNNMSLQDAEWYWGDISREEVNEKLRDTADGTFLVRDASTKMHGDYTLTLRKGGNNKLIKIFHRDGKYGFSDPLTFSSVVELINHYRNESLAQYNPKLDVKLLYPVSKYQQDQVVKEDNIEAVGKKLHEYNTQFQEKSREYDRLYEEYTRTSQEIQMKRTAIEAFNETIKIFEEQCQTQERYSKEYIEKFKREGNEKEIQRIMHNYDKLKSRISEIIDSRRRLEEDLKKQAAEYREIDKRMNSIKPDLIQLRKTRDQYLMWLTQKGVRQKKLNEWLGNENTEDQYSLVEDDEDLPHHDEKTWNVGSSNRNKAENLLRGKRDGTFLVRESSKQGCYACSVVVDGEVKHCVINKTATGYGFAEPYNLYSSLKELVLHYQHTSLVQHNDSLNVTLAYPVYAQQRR
row,SMILES,IC50 [nM]
1,"O=C1N[C@@H](c2cc(F)ccc2Cl)c2c(NC(=O)N3C[C@H](O)c4cc(F)ccc43)cc(-n3ccnn3)cc21 (single isomer, unassigned) [Compound I-2368]",1000 to 10000
2,O=C(Nc1cc(Br)cc2c1C(c1cc(F)ccc1Cl)NC2=O)NC1(CC(F)(F)F)CCOCC1 (stereo not shown) [Compound I-1953],10000 to 100000
3,O=C(Nc1cc(-c2ccncc2C(=O)O)cc2c1C(c1cc(F)ccc1Cl)NC2=O)c1cc(F)cc(C(F)(F)F)c1 (stereo not shown) [Compound I-1217],100 to 500
4,O=C(Nc1cc(Br)cc2c1C(c1cc(F)ccc1Cl)NC2=O)NC1(CC(F)(F)F)CC1 (stereo not shown) [Compound I-1755],10000 to 100000
5,O=C(Nc1cc(OS(=O)(=O)F)cc2c1C(c1cc(F)ccc1Cl)NC2=O)c1cc(F)cc(C(F)(F)F)c1 (stereo not shown) [Compound I-483],≤ 100
6,O=C(Nc1cc(CN2CCn3cnnc3C2)cc2c1C(c1cc(F)ccc1Cl)NC2=O)c1cc(F)cc(C(F)(F)F)c1 (stereo not shown) [Compound I-1401],≤ 100
7,O=C1NC(c2cc(F)ccc2Cl)c2c(NC(=O)N3CC4(CC4)c4cc(F)ccc43)cc(Br)cc21 (stereo not shown) [Compound I-1512],100 to 500
8,O=C(Nc1cc(NC(=O)C2CC2)cc2c1C(c1cc(F)ccc1Cl)NC2=O)c1cc(F)cc(C(F)(F)F)c1 (stereo not shown) [Compound I-625],≤ 100
9,"O=C(Nc1cc(OC[C@H]2CCO2)cc2c1[C@@H](c1cc(F)ccc1Cl)NC2=O)c1cc(F)cc(C(F)(F)F)c1 (single isomer, unassigned) [Compound I-1520]",10000 to 100000
10,Cc1ccccc1C1NC(=O)c2c(CN)ccc(NC(=O)c3csc4ccccc34)c21 (stereo not shown) [Compound I-140],≤ 100
11,Cc1ccccc1C1NC(=O)c2cccc(NC(=O)c3cc(F)cc(C4COC4)c3)c21 (stereo not shown) [Compound I-657],1000 to 10000
12,"CN1C[C@@H](COc2cc(NC(=O)c3cc(F)cc(C(F)(F)F)c3)c3c(c2)C(=O)N[C@@H]3c2cc(F)ccc2Cl)CC1=O (single isomer, unassigned) [Compound I-1523]",1000 to 10000
13,O=C(Nc1cc(Br)cc2c1C(c1cc(F)ccc1Cl)NC2=O)c1cc(Cl)ccc1F (stereo not shown) [Compound I-794],1000 to 10000
14,COC1CN(c2cc(NC(=O)c3cc(F)cc(C(F)(F)F)c3)c3c(c2)C(=O)NC3c2cc(F)ccc2Cl)C1 (stereo not shown) [Compound I-728],100 to 500
15,O=C(Nc1cccc2c1C(N1CCC(F)(F)CC1)NC2=O)c1cc(F)cc(C(F)(F)F)c1 (stereo not shown) [Compound I-2077],1000 to 10000
16,O=C(Nc1cc(-c2ccn3ncnc3c2)cc2c1[C@H](c1cc(F)ccc1Cl)NC2=O)c1cc(F)cc(C(F)(F)F)c1 (stereo in doubt) [Compound I-1597],≤ 100
17,"O=C1N[C@H](c2cc(F)ccc2Cl)c2c(N[C@H]3CCOc4ccccc43)cc(-c3cnn(C(F)F)c3)nc21 (single isomer, unassigned) [Compound I-2159]",1000 to 10000
18,"O=C1C[C@H](c2cc(NC(=O)c3cc(F)cc(C(F)(F)F)c3)c3c(c2)C(=O)N[C@@H]3c2cc(F)ccc2Cl)CN1 (single isomer, unassigned) [Compound I-1711]",1000 to 10000
19,O=C1NC(c2cc(F)ccc2Cl)c2c(NC(=O)N3CCc4ccc(OC(F)(F)F)cc43)cccc21 (stereo not shown) [Compound I-2480],1000 to 10000
20,Cc1ccccc1C1NC(=O)c2cccc(NC3(c4cc(F)cc(C(F)(F)F)c4)COC3)c21 (stereo not shown) [Compound I-492],1000 to 10000
21,O=C(Nc1cc(-c2cn[nH]c2)nc2c1[C@H](c1cc(F)ccc1Cl)NC2=O)c1cc(F)cc(C(F)(F)F)c1 [Compound I-194],≤ 100
22,CC(C#N)n1cc(-c2cc(NC(=O)c3cc(F)cc(C(F)(F)F)c3)c3c(c2)C(=O)NC3c2cc(F)ccc2Cl)cn1 (stereo not shown) [Compound I-1837],≤ 100
23,"Nc1cc(NC(=O)N2C[C@H](O)c3cc(F)ccc32)c2c(c1)C(=O)N[C@H]2c1cc(F)ccc1Cl (single isomer, unassigned) [Compound I-2413]",10000 to 100000
24,O=C1NC(c2cc(F)ccc2Cl)c2c(NC(=O)C3(c4cccc(Cl)c4)CCCC3)cc(Br)cc21 (stereo not shown) [Compound I-1637],10000 to 100000
25,N#CC1(COc2cc(NC(=O)c3cc(F)cc(C(F)(F)F)c3)c3c(c2)C(=O)NC3c2cc(F)ccc2Cl)CC1 (stereo not shown) [Compound I-1113],≤ 100
